# Where a SMILES comes first, the peptide text is derived from it. Bridges are numbered along the chain shown (N, C = ends). [ ]: non-standard residue; d: D form. The star is where a group is joined. Ala(1H-tetrazol-5-yl) = N[C@@H](Cc1nnn[nH]1)C(=O)O; Phe(4-COOH) = N[C@@H](Cc1ccc(C(=O)O)cc1)C(=O)O; Asp(3,3-Me2) = CC(C)(C(=O)O)[C@H](N)C(=O)O; Bip = N[C@@H](Cc1ccc(-c2ccccc2)cc1)C(=O)O; Phe(3-Me) = Cc1cccc(C[C@H](N)C(=O)O)c1; Phe(2-F) = N[C@@H](Cc1ccccc1F)C(=O)O; AEF = NCCOc1ccc(C[C@H](N)C(=O)O)cc1; Val(3-OH) = CC(C)(O)[C@H](N)C(=O)O; hPhe = N[C@@H](CCc1ccccc1)C(=O)O; 4Pal = N[C@@H](Cc1ccncc1)C(=O)O; Cha = N[C@@H](CC1CCCCC1)C(=O)O; Cit = NC(=O)NCCC[C@H](N)C(=O)O; Carboxymethyl = O=C(O)C*; Orn = NCCC[C@H](N)C(=O)O; Dab = NCC[C@H](N)C(=O)O; Dap = NC[C@H](N)C(=O)O; Bn = c1ccc(C*)cc1
# Biological target: T1, human PD-1 / PD-L1-Ig binding on Jurkat cell line over-expressing human PD-1 (Jurkat-PD-1) (Homo sapiens, UniProt Q15116)
# T1 construct: expressed in transfected cells; host or cells: Jurkat
# Assay: Jurkat-PD-1 Cell Binding High-Content Screening Assay (CBA)
# Type: cell-based
# Settings: Jurkat HPD1_PDL1 IC50, Jurkat-PD-1 cells, PE-labeled PD-L1-Ig 20 nM final
# Method in brief: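 PE-PD-L1-Ig 20 nM final; cells in DMEM/10% FCS; cpd pre-incubation 2 h, 37° C; ligand 1 h; PFA fix + Hoechst 33342; high-content imaging read-out.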
# T1 sequence (Q15116 25-288): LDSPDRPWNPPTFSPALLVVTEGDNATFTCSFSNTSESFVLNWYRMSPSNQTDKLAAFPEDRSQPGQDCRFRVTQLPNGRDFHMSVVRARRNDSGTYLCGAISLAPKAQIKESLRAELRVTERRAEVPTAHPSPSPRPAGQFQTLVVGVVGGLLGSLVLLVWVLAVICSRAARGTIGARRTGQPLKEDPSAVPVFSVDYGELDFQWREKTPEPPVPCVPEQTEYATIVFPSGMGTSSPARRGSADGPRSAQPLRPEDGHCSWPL
row,SMILES,IC50 [nM]
1,CC(C)C[C@H]1NC(=O)[C@H](CCCN)NC(=O)[C@H](C(C)C)NC(=O)[C@H](Cc2ccc(-c3ccccc3)cc2)NC(=O)[C@H](C(C)C)NC(=O)[C@H](Cc2c[nH]c3ccccc23)NC(=O)[C@H](CC(=O)O)NC(=O)[C@H](Cc2ccc(OCC(=O)O)cc2)NC(=O)[C@H](CN)NC(=O)CSC[C@@H](C(=O)N[C@@H](C)C(N)=O)NC(=O)[C@H]([C@@H](C)O)NC(=O)[C@H](Cc2ccc(OCc3ccccc3)cc2)NC(=O)[C@H](CC2CCCCC2)NC(=O)[C@H](CCN)NC1=O [Compound 1532] ({CH2CO}-[Dap]Y(Carboxymethyl)DWV[Bip]V[Orn][dL][Dab][Cha]Y(Bn)TCA-NH2; thioether N-14),111

# Same assay, conditions: Jurkat-PD-1 cells, PE-labeled PD-L1-Ig 20 nM final; read-out: Jurkat HPD1_PDL1 IC50
row,SMILES,IC50 [nM]
1,CCCC[C@@H]1NC(=O)[C@H](CCN)NC(=O)[C@@H](CC(C)C)NC(=O)[C@H](CCCN)NC(=O)[C@H]([C@@H](C)CC)NC(=O)[C@H](Cc2ccc(-c3ccccc3)cc2)NC(=O)[C@H](C(C)C)NC(=O)[C@H](Cc2cccc(C)c2)NC(=O)[C@H](CC(=O)O)NC(=O)[C@H](Cc2ccc(OCC(=O)O)cc2)NC(=O)[C@H](Cc2ccncc2)NC(=O)CSC[C@@H](C(=O)N[C@@H](C)C(N)=O)NC(=O)[C@H]([C@@H](C)O)NC(=O)[C@H](C(C)C)NC1=O [Compound 1197],12
2,CC(C)C[C@@H]1NC(=O)[C@H](CCCCN)NC(=O)[C@@H](CC(C)C)NC(=O)[C@H](CCCN)NC(=O)[C@H](Cc2cnc[nH]2)NC(=O)[C@H](Cc2ccc(-c3ccccc3)cc2)NC(=O)[C@H](C(C)C)NC(=O)[C@H](Cc2c[nH]c3ccccc23)NC(=O)[C@H](CC(=O)O)NC(=O)[C@H](Cc2ccc(O)cc2)NC(=O)[C@H](CC(N)=O)NC(=O)CSC[C@@H](C(=O)NCC(N)=O)NC(=O)[C@H](CO)NC(=O)[C@H](C(C)C)NC1=O [Compound 1135] ({CH2CO}-NYDWV[Bip]H[Orn][dL]KLVSCG-NH2; thioether N-14),13
3,CC(C)C[C@H]1NC(=O)[C@H](CCCN)NC(=O)[C@H](CCCNC(N)=O)NC(=O)[C@H](Cc2ccc(-c3ccccc3)cc2)NC(=O)[C@H](C(C)C)NC(=O)[C@H](Cc2c[nH]c3ccccc23)NC(=O)[C@H](CC(=O)O)NC(=O)[C@H](Cc2ccc(OCC(=O)O)cc2)NC(=O)[C@H](CN)NC(=O)CSC[C@@H](C(=O)N[C@@H](C)C(N)=O)NC(=O)[C@H]([C@@H](C)O)NC(=O)[C@H]([C@@H](C)O)NC(=O)[C@H](CC2CCCCC2)NC(=O)[C@H](CCN)NC1=O [Compound 1318] ({CH2CO}-[Dap]Y(Carboxymethyl)DWV[Bip][Cit][Orn][dL][Dab][Cha]TTCA-NH2; thioether N-14),10.6
4,Cc1cccc(C[C@@H]2NC(=O)[C@H](CC(=O)O)NC(=O)[C@H](Cc3ccc(C(=O)O)cc3)NC(=O)[C@H](Cc3ccncc3)NC(=O)CSC[C@@H](C(=O)N[C@@H](CC(N)=O)C(N)=O)NC(=O)[C@H](CCC(=O)O)NC(=O)[C@H](C(C)C)NC(=O)[C@H](CC3CCCCC3)NC(=O)[C@H](CCN)NC(=O)[C@@H](CC(C)C)NC(=O)[C@H](CCCN)NC(=O)[C@H](Cc3ccc(OCC(=O)O)cc3)NC(=O)[C@H](Cc3ccc(-c4ccccc4)cc3)NC(=O)[C@H](Cc3ccc(OCC(=O)O)cc3)NC2=O)c1 [Compound 2304] ({CH2CO}-[4Pal][Phe(4-COOH)]D[Phe(3-Me)]Y(Carboxymethyl)[Bip]Y(Carboxymethyl)[Orn][dL][Dab][Cha]VECN-NH2; thioether N-14),15
5,Cc1cccc(C[C@@H]2NC(=O)[C@H](Cc3nn[nH]n3)NC(=O)[C@H](Cc3ccc(OCC(=O)O)cc3)NC(=O)[C@H](CN)NC(=O)CSC[C@@H](C(=O)NCC(N)=O)NC(=O)[C@H](CO)NC(=O)[C@H](C(C)C)NC(=O)[C@H](CC(C)C)NC(=O)[C@H](CC(N)=O)NC(=O)[C@@H](CC(C)C)NC(=O)[C@H](CN)NC(=O)[C@H](C(C)C)NC(=O)[C@H](Cc3ccc(-c4ccccc4)cc3)NC(=O)[C@H](CC(C)C)NC2=O)c1 [Compound 1273] ({CH2CO}-[Dap]Y(Carboxymethyl)[Ala(1H-tetrazol-5-yl)][Phe(3-Me)]L[Bip]V[Dap][dL]NLVSCG-NH2; thioether N-14),54.8
6,CC(C)C[C@H]1NC(=O)[C@H](CCCN)NC(=O)[C@H](CCC(=O)O)NC(=O)[C@H](Cc2ccc(-c3ccccc3)cc2)NC(=O)[C@H](C(C)C)NC(=O)[C@H](Cc2ccccc2F)NC(=O)[C@H](CC(=O)O)NC(=O)[C@H](Cc2ccncc2)NC(=O)[C@H](CC(N)=O)NC(=O)CSC[C@@H](C(=O)N[C@@H](C)C(N)=O)NC(=O)[C@H]([C@@H](C)O)NC(=O)[C@H](C(C)C)NC(=O)[C@H](CC2CCCCC2)NC(=O)[C@H](CCN)NC1=O [Compound 2207] ({CH2CO}-N[4Pal]D[Phe(2-F)]V[Bip]E[Orn][dL][Dab][Cha]VTCA-NH2; thioether N-14),34.4
7,CC(C)C[C@@H]1NC(=O)[C@H](CCN)NC(=O)[C@@H](CC(C)C)NC(=O)[C@H](C)NC(=O)[C@H](CCCNC(=N)N)NC(=O)[C@H](Cc2ccc(-c3ccccc3)cc2)NC(=O)[C@H](C(C)C)NC(=O)[C@H](Cc2c[nH]c3ccccc23)NC(=O)[C@H](CC(=O)O)NC(=O)[C@H](Cc2ccc(O)cc2)NC(=O)[C@H](CC(N)=O)NC(=O)CSC[C@@H](C(=O)N[C@@H](C)C(N)=O)NC(=O)[C@H]([C@@H](C)O)NC(=O)[C@H](C(C)C)NC1=O [Compound 1001] ({CH2CO}-NYDWV[Bip]RA[dL][Dab]LVTCA-NH2; thioether N-14),140
8,Cc1cccc(C[C@@H]2NC(=O)[C@H](CC(=O)O)NC(=O)[C@H](Cc3ccc(C(=O)O)cc3)NC(=O)[C@H](CCc3ccccc3)NC(=O)CSC[C@@H](C(=O)N[C@@H](CCN)C(N)=O)NC(=O)[C@H](CO)NC(=O)[C@H](C(C)(C)O)NC(=O)[C@H](CC3CCCCC3)NC(=O)[C@H](CCN)NC(=O)[C@@H](CC(C)C)NC(=O)[C@H](CCCN)NC(=O)[C@H](Cc3ccc(OCC(=O)O)cc3)NC(=O)[C@H](Cc3ccc(-c4ccccc4)cc3)NC(=O)[C@H](Cc3ccc(OCC(=O)O)cc3)NC2=O)c1 [Compound 2081] ({CH2CO}-[hPhe][Phe(4-COOH)]D[Phe(3-Me)]Y(Carboxymethyl)[Bip]Y(Carboxymethyl)[Orn][dL][Dab][Cha][Val(3-OH)]SC[Dab]-NH2; thioether N-14),111
9,Cc1cccc(C[C@@H]2NC(=O)[C@H](CC(=O)O)NC(=O)[C@H](Cc3ccc(C(=O)O)cc3)NC(=O)[C@H](Cc3ccncc3)NC(=O)CSC[C@@H](C(=O)N[C@@H](C)C(N)=O)NC(=O)[C@H]([C@@H](C)O)NC(=O)[C@H](C(C)C)NC(=O)[C@H](CC3CCCCC3)NC(=O)[C@H](CCN)NC(=O)[C@@H](CC(C)C)NC(=O)[C@H](CCCN)NC(=O)[C@H](C(C)C)NC(=O)[C@H](Cc3ccc(-c4ccccc4)cc3)NC(=O)[C@H](C(C)C)NC2=O)c1 [Compound 1194],4.7
10,CC(C)C[C@H]1NC(=O)[C@H](CCCN)NC(=O)[C@H](CCC(=O)O)NC(=O)[C@H](Cc2ccc(-c3ccccc3)cc2)NC(=O)[C@H](C(C)C)NC(=O)[C@H](Cc2c[nH]c3ccccc23)NC(=O)[C@H](CC(=O)O)NC(=O)[C@H](Cc2ccc(OCC(=O)O)cc2)NC(=O)[C@H](CN)NC(=O)CSC[C@@H](C(=O)N[C@@H](C)C(N)=O)NC(=O)[C@H]([C@@H](C)O)NC(=O)[C@H](C(C)C)NC(=O)[C@H](Cc2ccc(OCCN)cc2)NC(=O)[C@H](CCN)NC1=O [Compound 1511] ({CH2CO}-[Dap]Y(Carboxymethyl)DWV[Bip]E[Orn][dL][Dab][AEF]VTCA-NH2; thioether N-14),737
11,CC(C)C[C@@H]1NC(=O)[C@H](Cc2c[nH]c3ccccc23)NC(=O)[C@H](CC(=O)O)NC(=O)[C@H](Cc2ccc(O)cc2)NC(=O)[C@H](Cc2ccccc2)NC(=O)CSC[C@@H](C(=O)N[C@@H](C)C(N)=O)NC(=O)[C@H](CO)NC(=O)[C@H](C(C)C)NC(=O)[C@H](CC(C)C)NC(=O)[C@H](CCN)NC(=O)[C@@H](CC(C)C)NC(=O)[C@H](CCN)NC(=O)[C@H](CCCNC(N)=O)NC(=O)[C@H](Cc2ccc(-c3ccccc3)cc2)NC1=O [Compound 1228] ({CH2CO}-FYDWL[Bip][Cit][Dab][dL][Dab]LVSCA-NH2; thioether N-14),17.5
12,"Cc1cccc(C[C@@H]2NC(=O)[C@H](CC(=O)O)NC(=O)[C@H](Cc3ccc(OCC(=O)O)cc3)NC(=O)[C@H](CCN)NC(=O)CSC[C@@H](C(=O)N[C@@H](CCN)C(N)=O)NC(=O)[C@H](CO)NC(=O)[C@H](C(C)(C)C(=O)O)NC(=O)[C@H](CC3CCCCC3)NC(=O)[C@H](CCN)NC(=O)[C@@H](CC(C)C)NC(=O)[C@H](CCCN)NC(=O)[C@H](Cc3ccc(OCC(=O)O)cc3)NC(=O)[C@H](Cc3ccc(-c4ccccc4)cc3)NC(=O)[C@H](Cc3ccc(OCC(=O)O)cc3)NC2=O)c1 [Compound 2070] ({CH2CO}-[Dab]Y(Carboxymethyl)D[Phe(3-Me)]Y(Carboxymethyl)[Bip]Y(Carboxymethyl)[Orn][dL][Dab][Cha][Asp(3,3-Me2)]SC[Dab]-NH2; thioether N-14)",17
13,CC(C)C[C@H]1NC(=O)[C@H](CCCN)NC(=O)[C@H](C(C)C)NC(=O)[C@H](Cc2ccc(-c3ccccc3)cc2)NC(=O)[C@H](C(C)C)NC(=O)[C@H](Cc2c[nH]c3ccccc23)NC(=O)[C@H](CC(=O)O)NC(=O)[C@H](Cc2ccc(OCC(=O)O)cc2)NC(=O)[C@H](C(C)O)NC(=O)CSC[C@@H](C(=O)N[C@@H](C)C(N)=O)NC(=O)[C@H](C(C)O)NC(=O)[C@H](C(C)C)NC(=O)C(CC2CCCCC2)NC(=O)[C@H](CCN)NC1=O (stereo partly drawn) [Compound 2511],5.1
14,CC(C)C[C@@H]1NC(=O)[C@H](Cc2c[nH]c3ccccc23)NC(=O)[C@H](CC(=O)O)NC(=O)[C@H](Cc2ccc(O)cc2)NC(=O)[C@H](Cc2ccccc2)NC(=O)CSC[C@@H](C(=O)N[C@@H](C)C(N)=O)NC(=O)[C@H]([C@@H](C)O)NC(=O)[C@H](C(C)C)NC(=O)[C@H](CC(C)C)NC(=O)[C@H](CCN)NC(=O)[C@@H](CC(C)C)NC(=O)[C@H](CCN)NC(=O)[C@H](C(C)C)NC(=O)[C@H](Cc2ccc(-c3ccccc3)cc2)NC1=O [Compound 1062] ({CH2CO}-FYDWL[Bip]V[Dab][dL][Dab]LVTCA-NH2; thioether N-14),12.4

# From patent US20250163104A1, “MACROCYCLIC IMMUNOMODULATORS” (priority 2021, published 2025)
